From US20070219214A1, “Dual NK2/NK3-antagonists, pharmaceutical compositions comprising them, and processes for their preparation” (Solvay pharmaceuticals GmbH, priority 2006, published 2007)

Experiments:
human NK3 receptor [1] = target: T1, human NK3 receptor (Homo sapiens, UniProt P29371); assay: Functional cellular test, Ca2+ measurements using aequorin for NK3 activity; assay type: cell-based; design: expressed in transfected cells; host or cells: cell line co-expressing mitochondrially targeted apoaequorin (CHO according to b76/b77); conditions: for pA2 data for NK3: cell line with human NK3 receptor and apoaequorin, agonist senktide 5x10-8 M
T1 sequence (P29371 1-465): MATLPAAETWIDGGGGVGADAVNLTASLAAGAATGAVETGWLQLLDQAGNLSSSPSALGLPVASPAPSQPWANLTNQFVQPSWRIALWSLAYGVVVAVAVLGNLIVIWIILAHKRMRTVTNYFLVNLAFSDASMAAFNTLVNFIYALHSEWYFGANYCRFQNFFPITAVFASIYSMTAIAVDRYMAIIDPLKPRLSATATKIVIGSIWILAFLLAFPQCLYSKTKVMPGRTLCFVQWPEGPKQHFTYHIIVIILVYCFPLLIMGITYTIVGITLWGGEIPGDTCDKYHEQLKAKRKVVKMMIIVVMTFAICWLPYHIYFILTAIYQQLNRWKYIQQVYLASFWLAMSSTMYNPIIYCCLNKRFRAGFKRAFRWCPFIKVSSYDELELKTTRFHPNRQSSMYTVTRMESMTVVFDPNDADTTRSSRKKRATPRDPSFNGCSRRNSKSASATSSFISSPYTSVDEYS

human NK2-receptor [2] = target: T2, human NK2-receptor (Homo sapiens, UniProt P21452); assay: Binding potency of the test substances to NK2-receptors in vitro ([3H]-SR 48968 displacement); design: expressed in transfected cells; host or cells: CHO cells (membrane preparation); conditions: human NK2-receptor in CHO cell membranes, [3H]-SR 48968 (saredutant), average of at least three measurements
T2 sequence (P21452 1-398): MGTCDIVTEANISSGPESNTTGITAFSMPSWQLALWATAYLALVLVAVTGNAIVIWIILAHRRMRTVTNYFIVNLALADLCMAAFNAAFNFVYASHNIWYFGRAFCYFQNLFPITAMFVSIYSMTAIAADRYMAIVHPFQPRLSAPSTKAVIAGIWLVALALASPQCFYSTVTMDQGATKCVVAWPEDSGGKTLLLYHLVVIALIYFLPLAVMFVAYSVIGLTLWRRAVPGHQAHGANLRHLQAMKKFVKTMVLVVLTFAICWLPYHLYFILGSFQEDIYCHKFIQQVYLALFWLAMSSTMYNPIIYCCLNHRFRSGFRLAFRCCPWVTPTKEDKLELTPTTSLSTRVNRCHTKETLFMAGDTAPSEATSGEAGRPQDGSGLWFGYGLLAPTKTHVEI
In short: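 Membranes from CHO cells stably expressing the receptor were incubated with [3H]-saredutant plus test compound, then filtered and counted by liquid scintillation. Nonspecific binding defined with 0.1 μmol/l unlabeled saredutant. IC50 from displacement converted to Ki via Cheng-Prusoff and reported as pKi, averaged over measurements.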

NK3-receptor = target: T3, NK3-receptor (Cavia porcellus, UniProt P30098); assay: NK-3-receptor-antagonistic effectiveness in vivo, senktide-induced hypertension in guinea pigs; conditions: guinea pig, iv; read-out: ID50 (iv), inhibition of blood pressure
T3 construct: from tissue; host or cells: whole animal (Dunkin Hartley guinea pigs), in vivo
T3 sequence (P30098 1-440): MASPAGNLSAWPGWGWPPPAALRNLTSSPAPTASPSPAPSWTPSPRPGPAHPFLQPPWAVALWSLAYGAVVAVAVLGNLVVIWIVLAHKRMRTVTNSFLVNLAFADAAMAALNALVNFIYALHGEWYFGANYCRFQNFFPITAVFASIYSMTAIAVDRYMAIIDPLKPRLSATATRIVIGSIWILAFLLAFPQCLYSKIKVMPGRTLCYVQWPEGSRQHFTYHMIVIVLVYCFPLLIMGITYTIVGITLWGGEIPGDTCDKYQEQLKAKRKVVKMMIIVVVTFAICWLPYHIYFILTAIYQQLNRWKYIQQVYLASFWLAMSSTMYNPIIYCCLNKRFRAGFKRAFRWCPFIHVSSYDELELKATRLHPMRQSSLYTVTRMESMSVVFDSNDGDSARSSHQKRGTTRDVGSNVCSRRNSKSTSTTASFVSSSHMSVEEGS
Description: 9. Determination of the NK-3-Receptor-Antagonistic Effectiveness of the Test Substances In Vivo (Reduction of Blood Pressure in Guinea-Pigs with Senktide-Induced Hypertension)
NK3 agonists increase the blood pressure in guinea pigs. The senktide-induced hypertension can be antagonized by administering compounds with NK3-antagonistic properties. Measuring the level of hypertension is indicative of the degree of activity of the test compounds. The effect of the tested compound is assessed in the same experiment to exclude an additional hypertensional effect.
Male Dunkin Hartley guinea pigs with a body weight between 450 and 550 g were anesthetized with Ketamin (200 mg/kg i.m.; Aescoket 10%) and the left carotid artery and left jugular vein were cannulated for blood pressure measurement and drug application, respectively. The animals were allowed to breathe spontaneously. Blood pressure was measured with a strain gauge transducer connected to a computer via an amplifier.
For oral administration, vehicle (1% methylcellulose) or test compound was administered in a dose volume of 5 ml/kg. Forty five minutes thereafter, anesthesia was induced and the carotid artery and jugular vein were cannulated.
For intravenous administration, the test compounds were dissolved in 40% hydroxypropyl-β-cyclodextrine (HPCD) containing 10% DMSO, diluted with saline and administered intravenously in cumulative dose ranges. A vehicle group of animals received the corresponding HPCD/DMSO solutions instead of the test compound. For oral administration, the test compound was suspended in 1% methylcellulose. A vehicle group of animals received the corresponding […] of the test compound.

human NK2-receptor [3] = target: T2, human NK2-receptor; assay: Functional cellular test, Ca2+ measurements using FLIPR for NK2 activity; conditions: for pA2 data for NK2: CHO cells, human NK2, FLIPR Ca2+, agonist NKA 10^-7 M;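 for all read-outs here: CHO cells stably expressing the human receptor, loaded with a calcium dye, antagonist inhibition of ligand-evoked intracellular calcium rise read as peak fluorescence change on FLIPR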
Description: Functional Cellular Tests of the NK1-, NK2- and NK3-Antagonism
Functional cellular tests of the antagonistic effect of the compounds of the present invention on the human tachykinin receptors were performed in CHO cells expressing the recombinant human NK1, NK2 or NK3-receptor. In these tests the inhibition of ligand-induced increase in mobilization of intracellular calcium and inhibition of ligand-induced phosphorylation of mitogen activated protein kinase (MAPK) were determined, which can be used as a measure of functional activity of tachykinin-antagonists. Additionally, the antagonistic properties of reference compounds on the different tachykinin receptors were characterized for comparison.
The effects of test compounds were assessed using Chinese hamster ovary (CHO) fibroblast cells, stably expressing cloned human NK1, NK2 or NK3-receptors. The NK receptor is coupled to Gq. The activation of the Gq protein by ligand binding to the receptor leads to a mobilization of intracellular calcium and phosphorylation of MAPK. Both systems were used to determine functional effects of the test compounds.
Ca^2+ Measurements Using FLIPR for NK1 and NK2 Activity
For tests, cells were seeded 24 hours prior to the experiment into black 96-well microplates. The cell density was 2.2×10^4 cells/well. All steps were done under sterile conditions. In order to observe changes in intracellular calcium levels, cells were loaded with a calcium-sensitive dye. This dye (FLUO-4, from Molecular Probes) excites at 488 nm, and emits in the 500 nm to 560 nm range, only if a complex with calcium is formed. For the dye loading the growth-medium was aspirated out of the well without disturbing the confluent cell layer and 100 μl loading medium (HBSS, 4 μM FLUO-4, 0.005% (w/v) pluronic acid, 2.5 mM probenecid, 20 mM HEPES, pH 7.4) was dispensed into each well using an automatic pipettor system (Multidrop, Labsystems). Pluronic acid was added to increase dye solubility and dye uptake into the cells, whereas probenecid, an anion exchange inhibitor, was added to the loading medium to increase dye retention in the cells. The cells were incubated in a 5% CO2 incubator at 37° C. for 40 minutes. After dye loading, the cells were washed three times with wash-buffer (HBSS, 2.5 mM probenecid, 20 mM HEPES, pH 7.4) to reduce basal fluorescence. In the last washing step the buffer was aspirated and replaced with 100 μl washing buffer. […] The FLIPR setup parameters were set to 0.4 sec exposure length, filter 1, 50 μl fluid addition, pipettor height at 125 μl, dispense speed 40 μl/sec without mixing. Maximal fluorescence changes were obtained using the statistic function of the FLIPR software, and data plotted using GraphPad Prism 4. All points were expressed as a percentage inhibition of the control agonist. IC50 values were determined using sigmoidal dose-response curve fitting. Antagonist potencies (pA2) values were calculated using equation: pA2=−log(IC50/(1+[L]/EC50)),

human NK1-receptor [4] = target: T4, human NK1-receptor (Homo sapiens, UniProt P25103); assay: Functional cellular test, Ca2+ measurements using FLIPR for NK1 activity; assay type: cell-based; design: expressed in transfected cells; host or cells: CHO fibroblast cells; conditions: CHO cells, human NK1, FLIPR Ca2+, agonist substance P 10^-8 M
From the text: The NK receptor is coupled to Gq.
All steps were done under sterile conditions.

NK2-receptor = target: T5, NK2-receptor (Cavia porcellus, UniProt Q64077); assay: NK2-receptor-antagonistic effectiveness in vivo, NKA-induced late hypotension, bronchoconstriction and colonic pressure in anaesthetised guinea pigs; conditions: guinea pig; for ED50 iv after 1 min (cumulative), NK2 (bronchoconstriction) / ED50 iv after 1 min (cumulative), NK2 (colonic motility) / ED50 iv after 1 min (cumulative), NK2 (late hypotension): intravenous administration
T5 construct: from tissue; host or cells: whole animal (Pirbright-White guinea pigs), in vivo
T5 sequence (Q64077 1-402): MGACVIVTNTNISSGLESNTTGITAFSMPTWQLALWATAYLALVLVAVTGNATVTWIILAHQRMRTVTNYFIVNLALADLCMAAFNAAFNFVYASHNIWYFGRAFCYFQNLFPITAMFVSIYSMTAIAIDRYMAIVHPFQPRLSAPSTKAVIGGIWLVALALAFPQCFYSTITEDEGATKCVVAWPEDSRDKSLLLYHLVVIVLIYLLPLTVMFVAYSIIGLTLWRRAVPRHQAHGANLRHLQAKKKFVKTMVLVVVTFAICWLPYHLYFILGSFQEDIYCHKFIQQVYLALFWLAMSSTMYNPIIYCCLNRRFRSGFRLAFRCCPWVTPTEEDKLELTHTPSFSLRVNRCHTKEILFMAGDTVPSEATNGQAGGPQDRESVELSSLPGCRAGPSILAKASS
From the text: (§1) 10. Determination of the NK1- and NK2-Receptor-Antagonistic Effectiveness of the Test Substances In Vivo
(§2) The NK1- and NK2-antagonistic activities of the test substances were investigated in anaesthetised guinea pigs in each case after intravenous (=i.v.) and oral (=p.o.) administration in vivo. With the present test model it is possible to detect both NK2-antagonistic effects in three different organ systems (respiratory tracts, colon and circulation) and NK1-antagonistic effects (rapid drop in blood pressure) in an animal simultaneously.
(§3) Pirbright-White guinea pigs of a body weight of 500-700 g were anaesthetised with ketamine/xylazine (67/13 mg/kg subcutaneously, initial dose, further doses administered as required). The animals were provided with an intravenous catheter in order to administer the substance and an intra-arterial catheter to measure the blood pressure. The animals were artificially ventilated via a tracheal cannula and the respiratory pressure was recorded by means of a pressure transducer. A balloon was introduced into the distal colon of the animals for manometric recording of colon motility by means of a pressure transducer. Blood pressure, heart rate, respiratory pressure and colonic pressure were measured continuously for each animal and plotted on a recorder and by means of a digital data-processing system. […] The second phase of delayed hypotension (=phase of maximum hypotension after 2-5 min.) on the other hand is mediated via NK2-receptors, since they can be blocked by specific NK2-receptor antagonists.
(§4) These ED50 values obtained from cumulative dose effect curves are plotted in Table 13.

human NK1-receptor [5] = target: T4, human NK1-receptor; assay: Binding potency of the test substances to NK1-receptors in vitro ([3H]-Substance P displacement); conditions: human NK1-receptor in CHO cell membranes, average of at least three measurements
Description: 1. Determination of the Binding Potency of the Test Substances to NK1-Receptors in Vitro
The affinity of test compounds for NK1-receptors can be determined by measuring the ability of the test compound to displace a radiolabeled ligand from its specific binding site. The tests were performed at Solvay Pharmaceuticals, Weesp, The Netherlands.
Separation of bound radioactivity from free radioactivity was done by filtration through glass fiber filters (Packard GF/B) with several washings with ice-cold buffer solution. Bound radioactivity was measured with a liquid scintillation counter (total binding).
The inhibition constant (Ki) was calculated according to the Cheng-Prusoff equation, and listed as its negative logarithmic value (pKi). The pKi value describes the potency of a test compound to bind to a receptor.

NK1-receptor = target: T6, NK1-receptor (Cavia porcellus, UniProt P30547); assay: NK1-receptor-antagonistic effectiveness in vivo, NKA-induced early hypotension in anaesthetised guinea pigs; conditions: guinea pig, NKA 200 pmol/animal i.v.; for ED50 iv after 1 min (cumulative), NK1 (early hypotension): intravenous administration
T6 construct: from tissue; host or cells: whole animal (Pirbright-White guinea pigs), in vivo
From the text: as §1, §2, §3, §4

human NK3 receptor [6] = target: T1, human NK3 receptor; assay: Binding potency of the test substances to NK3-receptors in vitro ([3H]-SR 142801 displacement); design: expressed in transfected cells; host or cells: CHO cells (membrane preparation); conditions: human NK3-receptor in CHO cell membranes, [3H]-SR 142801 (osanetant); average of at least three measurements
In short: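 [3H]-osanetant displacement on membranes from CHO cells stably expressing the human receptor, with bound ligand separated by filtration and counted by scintillation. Nonspecific binding defined with 1 μmol/l unlabeled osanetant. IC50 converted to Ki by Cheng-Prusoff and reported as pKi, averaged over measurements.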

[7] = NKA 200 pmol/animal i.v., oral administration

T4 sequence (P25103 whole entry): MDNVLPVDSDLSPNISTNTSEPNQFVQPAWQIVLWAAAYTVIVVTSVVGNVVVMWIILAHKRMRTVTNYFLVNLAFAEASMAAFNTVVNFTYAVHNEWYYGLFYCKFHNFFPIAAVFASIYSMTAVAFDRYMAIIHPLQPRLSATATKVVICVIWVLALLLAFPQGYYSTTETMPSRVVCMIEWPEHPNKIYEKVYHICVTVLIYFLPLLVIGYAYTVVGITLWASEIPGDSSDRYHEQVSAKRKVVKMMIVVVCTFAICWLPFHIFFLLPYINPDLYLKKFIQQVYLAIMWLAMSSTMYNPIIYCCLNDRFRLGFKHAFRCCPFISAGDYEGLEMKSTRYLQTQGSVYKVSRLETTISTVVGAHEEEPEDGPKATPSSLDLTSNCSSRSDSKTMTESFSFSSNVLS
T6 sequence (P30547 whole entry): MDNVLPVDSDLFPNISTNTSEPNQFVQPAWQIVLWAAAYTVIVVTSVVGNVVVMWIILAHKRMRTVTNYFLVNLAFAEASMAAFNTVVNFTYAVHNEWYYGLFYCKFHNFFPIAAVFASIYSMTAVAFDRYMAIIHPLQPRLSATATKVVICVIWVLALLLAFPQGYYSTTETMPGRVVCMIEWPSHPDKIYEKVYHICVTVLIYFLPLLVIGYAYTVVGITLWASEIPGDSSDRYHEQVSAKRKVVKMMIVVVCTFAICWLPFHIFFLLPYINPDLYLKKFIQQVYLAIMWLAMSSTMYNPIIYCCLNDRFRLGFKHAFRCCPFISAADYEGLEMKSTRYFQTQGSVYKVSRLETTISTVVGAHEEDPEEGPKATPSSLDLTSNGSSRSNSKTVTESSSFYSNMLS

| Structure (SMILES) | Kb (human NK3 receptor [1]; read-out: pA2 data for NK3 (converted)) [nM] | Ki (human NK2-receptor [2]; read-out: pKi, binding potency to NK2-receptors (converted)) [nM] | ED50 (NK3-receptor) [mg/kg] | Kb (human NK2-receptor [3]) [nM] | pA2 data for NK3 (human NK3 receptor [1]) | pA2 data for NK1 (human NK1-receptor [4]) | ED50 iv after 1 min (cumulative), NK2 (bronchoconstriction) (NK2-receptor; NKA 200 pmol/animal i.v.) [µmol/kg] | ED50 iv after 1 min (cumulative), NK2 (colonic motility) (NK2-receptor; NKA 200 pmol/animal i.v.) [µmol/kg] | ED50 iv after 1 min (cumulative), NK2 (late hypotension) (NK2-receptor; NKA 200 pmol/animal i.v.) [µmol/kg] | ED50 AUC1-180 min oral, NK2 (bronchoconstriction) (NK2-receptor; [7]) [µmol/kg] | ED50 AUC1-180 min oral, NK2 (colonic motility) (NK2-receptor; [7]) [µmol/kg] | ED50 AUC1-180 min oral, NK2 (late hypotension) (NK2-receptor; [7]) [µmol/kg] | oral activity on the NK2, in words (NK2-receptor; oral administration) | pKi, binding potency to NK1-receptors (human NK1-receptor [5]) | ED50 iv after 1 min (cumulative), NK1 (early hypotension) (NK1-receptor) [µmol/kg] | ED50 AUC1-180 min oral, NK1 (early hypotension) (NK1-receptor; oral administration) [µmol/kg] | pA2 data for NK2 (human NK2-receptor [3]) | pKi, binding potency to NK3-receptors (human NK3 receptor [6]) | pKi, binding potency to NK2-receptors (human NK2-receptor [2]) |
| --- | --- | --- | --- | --- | --- | --- | --- | --- | --- | --- | --- | --- | --- | --- | --- | --- | --- | --- | --- |
| CNC(=O)C1(N2CCCCC2)CCN(CC[C@H](CN(C)C(=O)c2ccccc2)c2ccc(Cl)c(Cl)c2)CC1 [compound 2] | 31.6 | 0.398 | 1.98 | 0.501 |  |  |  |  |  |  |  |  |  |  |  |  |  |  |  |
| CN(C)C(=O)C1(N2CCCCC2)CCN(CC[C@H](CN(C)C(=O)c2ccc(F)c(Cl)c2)c2ccc(Cl)c(Cl)c2)CC1 [compound 8] |  |  |  |  | 8.4 | 7.1 | 0.731 | 0.294 | 1.113 | >3.2 | >3.2 | >3.2 | active orally on the NK2 | 7.4 | >1.462 | >3.2 | 8.6 |  |  |
| CN(C)C(=O)C1(N2CCCCC2)CCN(CC[C@H](CN(C)C(=O)c2cc(F)cc(F)c2)c2ccc(Cl)c(Cl)c2)CC1 [compound 9] |  |  |  |  | 8.0 | 8.0 | 0.058 | 0.053 | 0.108 |  |  |  |  | 7.6 | >1.462 |  | 8.6 | 8.4 |  |
| CN(C)C(=O)C1(N2CCCCC2)CCN(CC[C@H](CN(C)C(=O)c2ccc(F)c(F)c2F)c2ccc(Cl)c(Cl)c2)CC1 [compound 16] |  |  |  |  | 7.9 |  | 0.38 | 0.132 | 0.34 |  |  |  |  |  | >1.462 |  | 8.3 | 7.8 | 9.0 |
